Source: patent US20130165635A1 (priority 2010, published 2013)
Numbered stars: 1 amine (or outer) side, 2 acyl side, 3 side chain; on linkers, the order of the positions; unused ones are H or OH. Bridge positions count the residues as written; N and C are the ends. Square brackets hold non-standard residues; d marks the D form. Peptide text beside a SMILES is read from it. X1 = CC(C)CCCCCCCCC[C@H](CC(=O)[*:1])O[*:2]

Legend:
Format in all cases: cell-based
[1] = system: Magnaporthe grisea; conditions: 1.56 to 12.56 μg/mL, 100 μL in cup, 25° C. for 1 to 3 days
[2] = system: Fusarium oxysporum
[3] = system: Trichophyton mentagrophytes

Compound | antifungal activity (growth inhibition of test microorganism) [1] | antifungal activity (growth inhibition of test microorganism) [2] | antifungal activity (growth inhibition of test microorganism) [3]
CC(C)CCCCCCCCC[C@@H]1CC(=O)N[C@@H](CCC(=O)O)C(=O)N[C@@H](CC(C)C)C(=O)N[C@H](CC(C)C)C(=O)N[C@@H](C(C)C)C(=O)N[C@@H](CC(=O)O)C(=O)N[C@H](CC(C)C)C(=O)N[C@@H](CC(C)C)C(=O)O1 [surfactin] (EL[dL]VD[dL]L; linker N-C via X1) | weaker than iturin A, but slight inhibitory activities | did not show antifungal activity | –
iturin A | strong antifungal activities | strong antifungal activity | strong antifungal activities
